Key:
[1] = test system: TPA-induced mouse ear edema; experiment: Anti-inflammatory activity, TPA-induced mouse ear edema; type: in vivo, ICR mice; conditions: for TPA-induced mouse ear edema: 0.5% in acetone
Protocol: In order to investigate the anti-inflammatory activity of the derivatives of the present invention, the animal experiments were performed as below. Seven-week-old male ICR mice were treated with TPA (12-O-tetradecanoylphorbol 13-acetate, […]) in the right ear. […] The same experiment was performed by treating hydrocortisone used as a treatment agent for inflammation as a control at the same concentration.
Subsequently, secondly, the adenosine derivative compound of the present invention was treated after 6 hours from TPA treatment. Twenty-four hours after TPA treatment, the animals were euthanized using the cervical dislocation method. Then, a right ear sample was obtained using a 6 mm diameter punch. The activity could be confirmed by weighing using a microbalance. The inhibition rate (%) was calculated using the following Equation 1.

[2] = target: T1, human adenosine A3 receptor (Homo sapiens, UniProt P0DMS8); experiment: Antagonistic effect and cAMP inhibition test on adenosine A3 receptor (CHO cells, Cl-IB-MECA, Schild analysis); type: cell-based; conditions: different concentrations
T1 construct: expressed in transfected cells; host or cells: CHO (ATCC CCL-61)
T1 sequence (P0DMS8 1-318): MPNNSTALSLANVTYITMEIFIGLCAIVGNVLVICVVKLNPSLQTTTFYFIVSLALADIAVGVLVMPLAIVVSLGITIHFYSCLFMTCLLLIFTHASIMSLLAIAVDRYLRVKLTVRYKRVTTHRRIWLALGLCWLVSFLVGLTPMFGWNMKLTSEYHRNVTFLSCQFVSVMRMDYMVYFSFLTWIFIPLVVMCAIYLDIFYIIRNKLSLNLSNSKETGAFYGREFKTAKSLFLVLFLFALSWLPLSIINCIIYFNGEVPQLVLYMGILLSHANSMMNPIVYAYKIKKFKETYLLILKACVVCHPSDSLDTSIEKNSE

[3] = target: T2, human adenosine A2B receptor (Homo sapiens, UniProt P29275); experiment: Agonist or antagonist activity at human adenosine A2B receptor; type: biochemical
T2 sequence (P29275 1-332): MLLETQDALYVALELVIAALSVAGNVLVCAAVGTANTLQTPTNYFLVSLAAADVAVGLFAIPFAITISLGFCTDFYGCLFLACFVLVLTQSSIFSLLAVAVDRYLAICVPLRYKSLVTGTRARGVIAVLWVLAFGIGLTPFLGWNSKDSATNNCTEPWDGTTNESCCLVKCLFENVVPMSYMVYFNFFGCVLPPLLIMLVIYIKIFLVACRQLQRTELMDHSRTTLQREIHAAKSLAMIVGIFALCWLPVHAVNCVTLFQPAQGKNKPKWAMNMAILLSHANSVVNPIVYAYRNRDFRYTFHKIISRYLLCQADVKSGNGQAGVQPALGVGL

[4] = target: T3, adenosine A3 receptor in rats expressed in Chinese hamster ovary (CHO) cells (Rattus norvegicus, UniProt P28647); experiment: Binding affinity for rat adenosine A3 receptor expressed in CHO cells
T3 construct: expressed in transfected cells; host or cells: CHO
T3 sequence (P28647 1-320): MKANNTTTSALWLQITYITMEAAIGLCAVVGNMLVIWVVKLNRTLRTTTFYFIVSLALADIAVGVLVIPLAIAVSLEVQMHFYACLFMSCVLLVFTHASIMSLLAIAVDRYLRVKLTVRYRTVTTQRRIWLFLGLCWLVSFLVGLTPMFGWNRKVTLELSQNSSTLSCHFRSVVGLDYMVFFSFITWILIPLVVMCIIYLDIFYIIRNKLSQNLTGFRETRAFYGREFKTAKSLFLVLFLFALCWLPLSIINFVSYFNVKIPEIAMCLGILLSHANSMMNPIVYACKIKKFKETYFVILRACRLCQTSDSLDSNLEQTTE

MMP (MMP2, MMP9) = experiment: MMP enzyme protein and mRNA expression in trabecular meshwork tissue; type: in vivo, C57BL/6J mice; conditions: Example 2 oral 20 mg/kg once a day and 10 mg/kg twice a day; acetazolamide 4.17 mg/kg once a day
Protocol: (§1) In Experimental Example 10, the expression amounts of these proteins and mRNAs in MMP and TIMP enzymes were measured for the eye tissues of the respective laboratory animals which the measurement of the intraocular pressure was completed, and the results are shown in FIG. 14 to FIG. 17. FIG. 14 and FIG. 15 show protein expression amounts of MMP (MMP2, MMP9) and TIMP (TIMP 1, TIMP2) enzymes, respectively. FIG. 16 and FIG. 17 show mRNA expression levels. In FIG. 14 to FIG. 17, Normal represents the expression level of the animal to which the dexamethasone was not treated in Experimental Example 10, Control represents the expression level of the animal to which only the excipient was administered in Experimental Example 10, and Acetazolamide represents the expression level of the animal to which acetazolamide was administered in Experimental Example 10.

TIMP (TIMP 1, TIMP2) = experiment: TIMP enzyme protein and mRNA expression in trabecular meshwork tissue; type: in vivo, C57BL/6J mice; conditions: Example 2 oral 20 mg/kg once a day and 10 mg/kg twice a day; acetazolamide 4.17 mg/kg once a day
Protocol: as §1

[5] = test system: extracellular matrix proteins (Fibronectin, SMA and MYOC); experiment: Anti-fibrotic effect on trabecular meshwork tissue (immunostaining); type: in vivo, C57BL/6J mice; conditions: Example 2 oral 20 mg/kg once a day and 10 mg/kg twice a day; acetazolamide 4.17 mg/kg once a day
Protocol: In Experimental Example 10, the ocular tissues of each laboratory animal after measurement of intraocular pressure were extracted and sectioned and immunostaining using antibody was performed to confirm the expression of extracellular matrix proteins (Fibronectin, SMA and MYOC) and the results are shown in FIG. 13. In FIG. 13, Normal represents the trabecular meshwork of the animal which dexamethasone was not treated with in Experimental Example 10, Control represents the trabecular meshwork tissue of the animal to which only the excipient was administered in Experimental Example 10, Acetazolamide represents the trabecular meshwork tissue of the animal to which acetazolamide was administered in Experimental Example 10. Fluorescently stained tissue was observed under fluorescence microscope under the same conditions (magnification 200×, exposure time 1 sec).

[6] = target: T4, human adenosine A3 receptor (hA3) (Homo sapiens, UniProt P0DMS8); experiment: Binding affinity for human adenosine A3 receptor (CHO cells, [125I]AB-MECA); conditions: read-out: K(nM) hA3
T4 construct: expressed in transfected cells; host or cells: CHO (ATCC CCL-61)
T4 sequence (P0DMS8 1-318): T1 sequence (P0DMS8 1-318)
Protocol: The Chinese hamster ovary (CHO, ATCC; American Cell Line No. CCL-61) cells expressing the adenosine A1 and A3 receptors were cultured in F-12 (Gibco Co., USA) medium supplemented with 10% fetal bovine serum (FBS) and penicillin/streptomycin (100 units/ml and 100 μg/ml) at 37° C. and 5% carbon dioxide. […] Various concentrations of the derivatives of the present invention are first dissolved in dimethylsulfoxide (DMSO) and then diluted with buffer solution and the final concentration of DMSO should not exceed 1%, and the cells are incubated in a 37° C. thermostat for 1 hour and the cells were rapidly filtered under reduced pressure using a cell collector (TOMTEC Co., USA). Subsequently, the test tube was washed three times with 3 ml buffer, and radioactivity was determined using a γ-counter. […] Specific binding was calculated by subtracting non-specific binding from total binding. From the measured specific binding, the bonding affinity of each sample of the various receptors was determined.

[7] = target: T5, human adenosine A2A receptor (hA2A) (Homo sapiens, UniProt P29274); experiment: Binding affinity for human adenosine A2A receptor (HEK 293 cells, [3H]CGS-21680); conditions: test concentration not given
T5 construct: expressed in transfected cells; host or cells: HEK 293
T5 sequence (P29274 whole entry): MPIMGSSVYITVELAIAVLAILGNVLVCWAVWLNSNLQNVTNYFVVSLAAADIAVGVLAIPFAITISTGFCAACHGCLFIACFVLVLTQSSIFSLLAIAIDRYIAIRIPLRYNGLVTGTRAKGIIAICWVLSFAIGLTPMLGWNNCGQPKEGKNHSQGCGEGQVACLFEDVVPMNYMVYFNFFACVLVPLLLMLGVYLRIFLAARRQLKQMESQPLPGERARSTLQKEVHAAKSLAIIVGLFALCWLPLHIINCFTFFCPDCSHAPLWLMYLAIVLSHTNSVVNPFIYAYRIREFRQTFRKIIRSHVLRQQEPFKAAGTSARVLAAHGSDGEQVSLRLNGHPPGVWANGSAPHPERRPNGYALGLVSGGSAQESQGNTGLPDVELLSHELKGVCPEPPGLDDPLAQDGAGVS

[8] = target: T6, human adenosine A1 receptor (hA1) (Homo sapiens, UniProt P30542); experiment: Binding affinity for human adenosine A1 receptor (CHO cells, [3H]CCPA); conditions: test concentration not given
T6 construct: expressed in transfected cells; host or cells: CHO (ATCC CCL-61)
T6 sequence (P30542 1-326): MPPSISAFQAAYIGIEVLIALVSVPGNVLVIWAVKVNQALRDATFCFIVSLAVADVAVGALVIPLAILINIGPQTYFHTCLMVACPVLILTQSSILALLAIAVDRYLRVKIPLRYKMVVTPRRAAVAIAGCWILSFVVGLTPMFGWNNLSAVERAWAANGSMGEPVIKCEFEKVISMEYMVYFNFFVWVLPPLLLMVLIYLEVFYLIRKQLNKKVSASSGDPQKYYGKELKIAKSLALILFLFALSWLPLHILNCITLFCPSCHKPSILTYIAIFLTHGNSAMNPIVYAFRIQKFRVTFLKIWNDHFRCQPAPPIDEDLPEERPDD

[9] = 0.5% in mixed solvent of distilled water and acetone (1:4)
[10] = 0.5% in mixed solvent of DMSO and acetone (1:9)

O[C@@H]1[C@H](O)CS[C@H]1n1cnc2c(NCc3cccc(F)c3)nc(Cl)nc21 [Example 1, (2R,3R,4S)-2-(2-chloro-6-(3-fluorobenzylamino)-9H-purin-9-yl)tetrahydrothiophene-3,4-diol]
melting point: 183.2 to 183.5 °C

O[C@@H]1[C@H](O)CS[C@H]1n1cnc2c(NCc3cccc(Br)c3)nc(Cl)nc21 [Example 3, (2R,3R,4S)-2-(2-chloro-6-(3-bromobenzylamino)-9H-purin-9-yl)tetrahydrothiophene-3,4-diol]
TPA-induced mouse ear edema [1]: reduced by a small amount | melting point: 184 to 185 °C

O[C@@H]1[C@H](O)CS[C@H]1n1cnc2c(NCc3cccc(I)c3)nc(Cl)nc21 [Example 4, (2R,3R,4S)-2-(2-chloro-6-(3-iodobenzylamino)-9H-purin-9-yl)tetrahydrothiophene-3,4-diol]
effect of the agonist Cl-IB-MECA in CHO cells treated with the compound [2]: inhibited depending on the concentration | activity as an agonist or an antagonist at human adenosine A2B receptor [3]: did not show activity as an agonist or an antagonist | TPA-induced mouse ear edema [1]: reduced by a small amount | TPA-induced mouse ear edema ([1]; listed as compound 4): had an effect of reducing edema | Ki [4]: 3.89 ± 1.15 nM

O[C@@H]1[C@H](O)CS[C@H]1n1cnc2c(NCc3ccccc3Cl)nc(Cl)nc21 [Example 5, (2R,3R,4S)-2-(2-chloro-6-(2-chlorobenzylamino)-9H-purin-9-yl) tetrahydrothiophene-3,4-diol]
inflammation inhibition rate [1, 9]: 17% | melting point: 198.7 to 199.7 °C

COc1ccc(Cl)cc1CNc1nc(Cl)nc2c1ncn2[C@@H]1SC[C@@H](O)[C@H]1O [Example 6, (2R,3R,4S)-2-(2-chloro-6-(5-chloro-2-methoxybenzylamino)-9H-purin-9-yl)tetrahydrothiophene-3,4-diol]
inflammation inhibition rate [1, 9]: 34% | melting point: 188.8 to 189.8 °C

COc1ccccc1CNc1nc(Cl)nc2c1ncn2[C@@H]1SC[C@@H](O)[C@H]1O [Example 7, (2R,3R,4S)-2-(2-chloro-6-(2-methoxybenzylamino)-9H-purin-9-yl)tetrahydrothiophene-3,4-diol]
inflammation inhibition rate [1, 9]: 53% | melting point: 188 °C

O=C(O)c1cccc(CNc2nc(Cl)nc3c2ncn3[C@@H]2SC[C@H](O)[C@@H]2O)c1 [Example 9, 3-((2-chloro-9-((2R,3S,4R)-3,4-dihydroxytetrahydrothiophen-2-yl)-9H-purin-6-ylamino)methyl)benzoic acid]
melting point: 254 to 256.9 °C

O[C@@H]1[C@H](O)CS[C@H]1n1cnc2c(NCc3cccc(Br)c3)ncnc21 [Example 13, (2R,3R,4S)-2-(6-(3-bromobenzylamino)-9H-purin-9-yl)tetrahydrothiophene-3,4-diol]
melting point: 183 to 184 °C

O[C@@H]1[C@H](O)CS[C@H]1n1cnc2c(NCc3cccc(I)c3)ncnc21 [Example 14, (2R,3R,4S)-2-(6-(3-iodobenzylamino)-9H-purin-9-yl) tetrahydrothiophene-3,4-diol]
melting point: 198.8 to 199.8 °C

O[C@@H]1[C@H](O)CO[C@H]1n1cnc2c(NCc3cccc(Br)c3)nc(Cl)nc21 [Example 15, (2R,3R,4R)-2-(6-(3-bromobenzylamino)-2-chloro-9H-purin-9-yl)tetrahydrofuran-3,4-diol]
inflammation inhibition rate [1, 10]: 59% | melting point: 181.5 to 181.7 °C

O[C@@H]1[C@H](O)CO[C@H]1n1cnc2c(NCc3cccc(I)c3)nc(Cl)nc21 [Example 16, (2R,3R,4R)-2-(6-(3-iodobenzylamino)-2-chloro-9H-purin-9-yl)tetrahydrofuro-3,4-diol]
inflammation inhibition rate [1, 10]: 79% | melting point: 195.5 to 195.8 °C

CC(=O)Nc1nnc(S(N)(=O)=O)s1 [acetazolamide, reference compound]
protein and mRNA expression levels of MMP enzyme compared with the normal group (MMP (MMP2, MMP9)): significantly decreased | protein and mRNA expression levels of TIMP enzyme compared with the normal group (TIMP (TIMP 1, TIMP2)): significantly increased | expression of fibronectin, SMA and MYOC protein in trabecular meshwork tissue [5]: increased expression

(2R,3R,4S)-2-(2-chloro-6-(naphthalen-1-ylmethylbenzylamino)-9H-purin-9-yl)tetrahydrothiophene-3,4-diol [Example 8]
Ki [6]: 24.8 ± 8.1 nM | % hA2A [7]: −8.3% | % hA1 [8]: 22.0%
